Calls of active or inactive are those of the source. The calls are words filed in the database; no cut-off is given here.
Experiments:
Burkholderia cepacia [1] = conditions: 128 ug/ml
Description: Antimicrobial activity against Burkholderia cepacia isolated from cystic fibrosis patient assessed as inhibition of bacterial cell growth at 128 ug/ml after 48 hrs under anaerobic condition

Staphylococcus aureus [2] = assay: Antimicrobial activity against Staphylococcus aureus USA300 after 24 hrs anaerobic condition; conditions: USA300, 24 h
Staphylococcus aureus [3] = assay: Antimicrobial activity against Staphylococcus aureus USA300 after 24 hrs aerobic condition; conditions: USA300, 24 h
Pseudomonas aeruginosa [4] = assay: Antimicrobial activity against non-mucoid Pseudomonas aeruginosa PAO1 after 24 hrs anaerobic condition; conditions: PAO1, 24 h
Pseudomonas aeruginosa [5] = conditions: FRD1, 64 ug/ml
Description: Antimicrobial activity against mucoid Pseudomonas aeruginosa FRD1 harboring mucA22 mutant assessed as inhibition of bacterial cell growth at 64 ug/ml after 24 hrs under anaerobic condition

Pseudomonas aeruginosa [6] = conditions: FRD1, 128 ug/ml
Description: Antimicrobial activity against mucoid Pseudomonas aeruginosa FRD1 harboring mucA22 mutant assessed as inhibition of bacterial cell growth at 128 ug/ml after 24 hrs under anaerobic condition

Staphylococcus aureus [7] = conditions: USA300, 1024 ug/ml
Description: Antimicrobial activity against Staphylococcus aureus USA300 assessed as 2 log inhibition of bacterial cell growth at 1024 ug/ml after 2 days under anaerobic condition

Burkholderia cepacia [8] = assay: microbe, parasite or virus in culture; conditions: 24 h
Description: Antimicrobial activity against Burkholderia cepacia isolated from cystic fibrosis patient after 24 hrs aerobic condition

Pseudomonas aeruginosa [9] = assay: Antimicrobial activity against mucoid Pseudomonas aeruginosa FRD1 harboring mucA22 mutant after 24 hrs under anaerobic condition; conditions: FRD1, 24 h
Pseudomonas aeruginosa [10] = conditions: PAO1, 64 to 256 ug/ml
Description: Antimicrobial activity against non-mucoid Pseudomonas aeruginosa PAO1 assessed as inhibition of bacterial cell growth at 64 to 256 ug/ml after 24 hrs under anaerobic condition

Pseudomonas aeruginosa [11] = assay: Antimicrobial activity against non-mucoid Pseudomonas aeruginosa PAO1 after 24 hrs aerobic condition; conditions: PAO1, 24 h
Staphylococcus aureus [12] = conditions: USA300, 512 ug/ml
Description: Antimicrobial activity against Staphylococcus aureus USA300 assessed as inhibition of bacterial cell growth at 512 ug/ml after 24 hrs under anaerobic condition

Pseudomonas aeruginosa [13] = assay: Antimicrobial activity against mucoid Pseudomonas aeruginosa FRD1 harboring mucA22 mutant after 24 hrs under aerobic condition; conditions: FRD1, 24 h
Staphylococcus aureus [14] = conditions: USA300, 2048 ug/ml
Description: Antimicrobial activity against Staphylococcus aureus USA300 assessed as 4 log inhibition of bacterial cell growth at 2048 ug/ml after 4 days under anaerobic condition

Pseudomonas aeruginosa [15] = conditions: FRD1, 256 ug/ml
Description: Antimicrobial activity against mucoid Pseudomonas aeruginosa FRD1 harboring mucA22 mutant assessed as 2 log inhibition of bacterial cell growth at 256 ug/ml after 2 days under anaerobic condition

Structure (SMILES): O=N[O-].[Na+] [SODIUM NITRITE]
- inhibition (Burkholderia cepacia [1]): Active
- MIC (Staphylococcus aureus [2]): 1020 µg/mL
- MIC (Staphylococcus aureus [3]): 4100 µg/mL
- MIC (Pseudomonas aeruginosa [4]): 512 µg/mL
- inhibition (Pseudomonas aeruginosa [5]): Active
- inhibition (Pseudomonas aeruginosa [6]): Active
- inhibition (Staphylococcus aureus [7]): Active
- MIC (Burkholderia cepacia [8]): 512 µg/mL
- MIC (Pseudomonas aeruginosa [9]): 128 µg/mL
- inhibition (Pseudomonas aeruginosa [10]): Active
- MIC (Pseudomonas aeruginosa [11]): 2050 µg/mL
- inhibition (Staphylococcus aureus [12]): Active
- MIC (Pseudomonas aeruginosa [13]): 1020 µg/mL
- inhibition (Staphylococcus aureus [14]): Active
- inhibition (Pseudomonas aeruginosa [15]): Active
